Results taken from article PMC12136037, “Type II kinase inhibitors that target Parkinson’s disease–associated LRRK2” (Science Advances, 2025).
Read-outs that look alike come from different tables or passages of the source.

Assays:
Assay in all cases: DSF 100 kinase selectivity screen;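 further: compound tested at 20 µM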
Assay type in all cases: binding
[1] = target: T1, ~100 representative kinases (Homo sapiens, UniProt O96013); settings: protein PAK4; average of three replicates
T1 construct: Recombinant protein kinase domains with a concentration of 2 μM
T1 sequence (O96013 whole entry, the tested form may be a part): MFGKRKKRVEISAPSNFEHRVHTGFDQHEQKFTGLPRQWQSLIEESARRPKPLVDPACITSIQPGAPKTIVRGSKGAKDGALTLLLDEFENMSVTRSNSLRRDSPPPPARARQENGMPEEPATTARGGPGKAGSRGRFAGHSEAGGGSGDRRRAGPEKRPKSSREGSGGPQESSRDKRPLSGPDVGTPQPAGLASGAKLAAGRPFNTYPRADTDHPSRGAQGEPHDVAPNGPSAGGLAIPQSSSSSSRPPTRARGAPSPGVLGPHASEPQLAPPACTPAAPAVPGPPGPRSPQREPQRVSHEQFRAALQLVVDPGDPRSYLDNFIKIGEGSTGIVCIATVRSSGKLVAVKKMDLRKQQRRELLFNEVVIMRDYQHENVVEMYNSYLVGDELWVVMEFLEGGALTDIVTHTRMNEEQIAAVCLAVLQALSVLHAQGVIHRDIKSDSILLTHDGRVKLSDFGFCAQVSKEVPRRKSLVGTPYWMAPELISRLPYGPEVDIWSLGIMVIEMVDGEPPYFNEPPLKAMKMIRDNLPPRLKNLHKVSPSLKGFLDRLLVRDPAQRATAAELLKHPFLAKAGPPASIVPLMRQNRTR
Outline: (§1)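 Each kinase domain, at 2 μM, is mixed with 20 μM test compound and SYPRO Orange in Hepes (20 mM, pH 7.5) with 500 mM NaCl. Temperature is then raised at 3°C/min and fluorescence-monitored unfolding yields the melting temperature change, ΔTm in degrees Celsius.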

[2] = target: T2, ~100 representative kinases (Homo sapiens, UniProt P11362); settings: protein FGFR1; average of three replicates
T2 construct: Recombinant protein kinase domains with a concentration of 2 μM
T2 sequence (P11362 22-822): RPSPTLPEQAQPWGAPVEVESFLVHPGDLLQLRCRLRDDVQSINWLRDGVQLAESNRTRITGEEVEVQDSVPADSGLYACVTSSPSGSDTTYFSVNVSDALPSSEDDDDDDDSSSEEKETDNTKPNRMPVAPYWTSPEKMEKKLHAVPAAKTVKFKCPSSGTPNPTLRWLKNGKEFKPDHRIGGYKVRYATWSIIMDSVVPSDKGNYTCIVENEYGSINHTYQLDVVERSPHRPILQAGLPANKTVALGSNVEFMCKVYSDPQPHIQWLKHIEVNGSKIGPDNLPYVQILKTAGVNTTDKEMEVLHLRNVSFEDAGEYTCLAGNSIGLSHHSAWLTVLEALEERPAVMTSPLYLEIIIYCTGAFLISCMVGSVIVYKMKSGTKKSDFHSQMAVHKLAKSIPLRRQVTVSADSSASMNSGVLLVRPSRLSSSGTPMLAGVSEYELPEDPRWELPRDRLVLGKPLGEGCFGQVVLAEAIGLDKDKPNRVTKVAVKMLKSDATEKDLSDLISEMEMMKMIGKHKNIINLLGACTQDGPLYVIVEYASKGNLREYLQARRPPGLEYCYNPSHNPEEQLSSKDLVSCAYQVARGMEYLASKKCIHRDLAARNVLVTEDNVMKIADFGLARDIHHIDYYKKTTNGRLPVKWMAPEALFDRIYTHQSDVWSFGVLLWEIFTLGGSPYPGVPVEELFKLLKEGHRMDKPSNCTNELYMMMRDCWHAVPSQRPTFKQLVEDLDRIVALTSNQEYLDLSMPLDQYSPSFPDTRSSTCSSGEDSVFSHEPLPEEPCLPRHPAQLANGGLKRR
Outline: as §1

[3] = target: T3, ~100 representative kinases (Homo sapiens, UniProt P22830); settings: protein FECH; average of three replicates
T3 construct: Recombinant protein kinase domains with a concentration of 2 μM
T3 sequence (P22830 55-423): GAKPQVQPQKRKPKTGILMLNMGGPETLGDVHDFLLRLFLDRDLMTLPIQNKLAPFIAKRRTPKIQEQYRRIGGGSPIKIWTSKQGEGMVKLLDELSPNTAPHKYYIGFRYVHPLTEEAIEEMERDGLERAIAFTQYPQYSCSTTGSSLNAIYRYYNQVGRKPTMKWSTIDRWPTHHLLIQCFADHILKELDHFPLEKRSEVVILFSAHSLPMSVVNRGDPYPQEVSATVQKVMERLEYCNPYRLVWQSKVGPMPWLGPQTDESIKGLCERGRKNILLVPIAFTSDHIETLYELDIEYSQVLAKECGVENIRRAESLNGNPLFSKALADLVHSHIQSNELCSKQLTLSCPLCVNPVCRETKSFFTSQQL
Outline: as §1

[4] = target: T4, ~100 representative kinases (Homo sapiens, UniProt P34947); settings: protein GPRK5; average of three replicates
T4 construct: Recombinant protein kinase domains with a concentration of 2 μM
T4 sequence (P34947 whole entry, the tested form may be a part): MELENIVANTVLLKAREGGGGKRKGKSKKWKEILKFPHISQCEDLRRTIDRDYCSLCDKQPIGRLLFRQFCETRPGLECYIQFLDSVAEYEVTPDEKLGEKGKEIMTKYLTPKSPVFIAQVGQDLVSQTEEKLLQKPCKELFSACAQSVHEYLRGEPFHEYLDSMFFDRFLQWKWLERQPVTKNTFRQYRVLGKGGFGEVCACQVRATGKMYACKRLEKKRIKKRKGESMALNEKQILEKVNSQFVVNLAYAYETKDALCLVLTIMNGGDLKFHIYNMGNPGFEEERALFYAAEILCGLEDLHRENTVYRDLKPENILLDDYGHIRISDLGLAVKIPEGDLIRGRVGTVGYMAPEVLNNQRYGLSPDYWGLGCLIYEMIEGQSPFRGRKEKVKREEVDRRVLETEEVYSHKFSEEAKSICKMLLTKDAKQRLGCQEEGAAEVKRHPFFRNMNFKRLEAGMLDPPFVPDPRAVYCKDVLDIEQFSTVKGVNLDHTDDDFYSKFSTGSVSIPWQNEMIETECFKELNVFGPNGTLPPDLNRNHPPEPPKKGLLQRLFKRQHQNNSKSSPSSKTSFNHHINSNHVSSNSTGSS
Outline: as §1

[5] = target: T5, ~100 representative kinases (Homo sapiens, UniProt P48730); settings: Protein CSNK1D; average of three replicates
T5 construct: Recombinant protein kinase domains with a concentration of 2 μM
T5 sequence (P48730 whole entry, the tested form may be a part): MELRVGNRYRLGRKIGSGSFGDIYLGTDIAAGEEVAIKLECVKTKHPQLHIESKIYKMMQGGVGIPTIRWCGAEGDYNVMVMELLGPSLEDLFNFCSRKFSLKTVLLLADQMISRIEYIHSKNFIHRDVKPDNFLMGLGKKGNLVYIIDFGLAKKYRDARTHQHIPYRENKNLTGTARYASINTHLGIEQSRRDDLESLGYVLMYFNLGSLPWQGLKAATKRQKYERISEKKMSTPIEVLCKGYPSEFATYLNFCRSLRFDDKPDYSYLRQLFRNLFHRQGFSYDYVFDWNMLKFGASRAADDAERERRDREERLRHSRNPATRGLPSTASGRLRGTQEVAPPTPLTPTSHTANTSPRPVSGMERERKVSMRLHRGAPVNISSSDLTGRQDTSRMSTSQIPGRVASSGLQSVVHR
Outline: as §1

[6] = target: T6, ~100 representative kinases (Homo sapiens, UniProt Q16539)
T6 construct: Recombinant protein kinase domains with a concentration of 2 μM
T6 sequence (Q16539 whole entry, the tested form may be a part): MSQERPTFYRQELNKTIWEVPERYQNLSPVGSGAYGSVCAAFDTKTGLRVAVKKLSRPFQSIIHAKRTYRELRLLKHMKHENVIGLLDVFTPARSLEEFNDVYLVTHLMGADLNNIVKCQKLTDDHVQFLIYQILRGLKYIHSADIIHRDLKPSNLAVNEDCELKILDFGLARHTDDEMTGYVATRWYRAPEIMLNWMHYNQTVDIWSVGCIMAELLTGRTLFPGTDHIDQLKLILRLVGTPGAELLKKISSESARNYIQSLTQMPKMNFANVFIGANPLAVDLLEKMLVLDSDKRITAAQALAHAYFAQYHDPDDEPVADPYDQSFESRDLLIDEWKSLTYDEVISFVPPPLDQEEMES
Outline: as §1

[7] = target: T7, ~100 representative kinases (Homo sapiens, UniProt Q8IU85); settings: Protein CAMK1D; average of three replicates
T7 construct: Recombinant protein kinase domains with a concentration of 2 μM
T7 sequence (Q8IU85 whole entry, the tested form may be a part): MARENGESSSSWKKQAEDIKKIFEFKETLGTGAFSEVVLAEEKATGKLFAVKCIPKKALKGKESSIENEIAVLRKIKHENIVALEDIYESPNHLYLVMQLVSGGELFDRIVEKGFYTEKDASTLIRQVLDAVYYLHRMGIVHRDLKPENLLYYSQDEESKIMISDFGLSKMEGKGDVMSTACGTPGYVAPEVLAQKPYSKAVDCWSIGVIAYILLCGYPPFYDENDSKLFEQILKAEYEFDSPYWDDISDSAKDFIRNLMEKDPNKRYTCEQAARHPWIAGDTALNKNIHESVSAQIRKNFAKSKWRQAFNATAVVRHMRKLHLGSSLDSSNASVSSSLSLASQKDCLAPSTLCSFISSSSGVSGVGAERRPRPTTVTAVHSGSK
Outline: as §1

[8] = target: T8, ~100 representative kinases (Homo sapiens, UniProt Q96NX5); settings: Protein CAMK1G; average of three replicates
T8 construct: Recombinant protein kinase domains with a concentration of 2 μM
T8 sequence (Q96NX5 whole entry, the tested form may be a part): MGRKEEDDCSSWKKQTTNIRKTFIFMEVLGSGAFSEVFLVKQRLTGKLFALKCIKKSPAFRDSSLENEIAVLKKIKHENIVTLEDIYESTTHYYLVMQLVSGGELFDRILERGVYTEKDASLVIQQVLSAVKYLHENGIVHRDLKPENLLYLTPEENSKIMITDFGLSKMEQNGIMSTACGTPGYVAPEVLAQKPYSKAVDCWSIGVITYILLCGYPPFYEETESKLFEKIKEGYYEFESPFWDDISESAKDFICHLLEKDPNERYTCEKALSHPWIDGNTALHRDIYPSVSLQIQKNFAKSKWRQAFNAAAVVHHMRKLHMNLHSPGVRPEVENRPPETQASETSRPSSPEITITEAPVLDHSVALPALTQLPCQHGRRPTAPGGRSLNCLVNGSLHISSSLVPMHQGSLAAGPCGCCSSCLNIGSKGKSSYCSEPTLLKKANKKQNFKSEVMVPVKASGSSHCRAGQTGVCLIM
Outline: as §1

[9] = target: T9, ~100 representative kinases (Homo sapiens, UniProt Q96RR4); settings: Protein CAMKK2; average of three replicates
T9 construct: Recombinant protein kinase domains with a concentration of 2 μM
T9 sequence (Q96RR4 whole entry, the tested form may be a part): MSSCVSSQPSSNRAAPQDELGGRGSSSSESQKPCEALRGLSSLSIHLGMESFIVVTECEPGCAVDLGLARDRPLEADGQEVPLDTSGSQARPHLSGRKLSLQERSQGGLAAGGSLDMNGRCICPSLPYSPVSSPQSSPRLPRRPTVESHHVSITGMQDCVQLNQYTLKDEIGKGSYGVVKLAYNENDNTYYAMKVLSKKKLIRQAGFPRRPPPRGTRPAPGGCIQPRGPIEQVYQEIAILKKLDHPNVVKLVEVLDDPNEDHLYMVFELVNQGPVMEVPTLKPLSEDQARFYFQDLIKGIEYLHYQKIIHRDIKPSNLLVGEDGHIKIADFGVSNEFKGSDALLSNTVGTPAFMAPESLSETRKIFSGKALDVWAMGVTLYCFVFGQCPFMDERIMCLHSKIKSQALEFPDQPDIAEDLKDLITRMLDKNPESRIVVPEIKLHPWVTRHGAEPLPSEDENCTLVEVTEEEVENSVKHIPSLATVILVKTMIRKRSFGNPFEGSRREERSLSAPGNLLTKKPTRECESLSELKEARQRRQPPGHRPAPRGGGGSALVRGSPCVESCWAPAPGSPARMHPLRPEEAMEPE
Outline: as §1

[10] = target: T10, ~100 representative kinases (Homo sapiens, UniProt Q99683); settings: protein MAP3K5; average of three replicates
T10 construct: Recombinant protein kinase domains with a concentration of 2 μM
T10 sequence (Q99683 1-1374): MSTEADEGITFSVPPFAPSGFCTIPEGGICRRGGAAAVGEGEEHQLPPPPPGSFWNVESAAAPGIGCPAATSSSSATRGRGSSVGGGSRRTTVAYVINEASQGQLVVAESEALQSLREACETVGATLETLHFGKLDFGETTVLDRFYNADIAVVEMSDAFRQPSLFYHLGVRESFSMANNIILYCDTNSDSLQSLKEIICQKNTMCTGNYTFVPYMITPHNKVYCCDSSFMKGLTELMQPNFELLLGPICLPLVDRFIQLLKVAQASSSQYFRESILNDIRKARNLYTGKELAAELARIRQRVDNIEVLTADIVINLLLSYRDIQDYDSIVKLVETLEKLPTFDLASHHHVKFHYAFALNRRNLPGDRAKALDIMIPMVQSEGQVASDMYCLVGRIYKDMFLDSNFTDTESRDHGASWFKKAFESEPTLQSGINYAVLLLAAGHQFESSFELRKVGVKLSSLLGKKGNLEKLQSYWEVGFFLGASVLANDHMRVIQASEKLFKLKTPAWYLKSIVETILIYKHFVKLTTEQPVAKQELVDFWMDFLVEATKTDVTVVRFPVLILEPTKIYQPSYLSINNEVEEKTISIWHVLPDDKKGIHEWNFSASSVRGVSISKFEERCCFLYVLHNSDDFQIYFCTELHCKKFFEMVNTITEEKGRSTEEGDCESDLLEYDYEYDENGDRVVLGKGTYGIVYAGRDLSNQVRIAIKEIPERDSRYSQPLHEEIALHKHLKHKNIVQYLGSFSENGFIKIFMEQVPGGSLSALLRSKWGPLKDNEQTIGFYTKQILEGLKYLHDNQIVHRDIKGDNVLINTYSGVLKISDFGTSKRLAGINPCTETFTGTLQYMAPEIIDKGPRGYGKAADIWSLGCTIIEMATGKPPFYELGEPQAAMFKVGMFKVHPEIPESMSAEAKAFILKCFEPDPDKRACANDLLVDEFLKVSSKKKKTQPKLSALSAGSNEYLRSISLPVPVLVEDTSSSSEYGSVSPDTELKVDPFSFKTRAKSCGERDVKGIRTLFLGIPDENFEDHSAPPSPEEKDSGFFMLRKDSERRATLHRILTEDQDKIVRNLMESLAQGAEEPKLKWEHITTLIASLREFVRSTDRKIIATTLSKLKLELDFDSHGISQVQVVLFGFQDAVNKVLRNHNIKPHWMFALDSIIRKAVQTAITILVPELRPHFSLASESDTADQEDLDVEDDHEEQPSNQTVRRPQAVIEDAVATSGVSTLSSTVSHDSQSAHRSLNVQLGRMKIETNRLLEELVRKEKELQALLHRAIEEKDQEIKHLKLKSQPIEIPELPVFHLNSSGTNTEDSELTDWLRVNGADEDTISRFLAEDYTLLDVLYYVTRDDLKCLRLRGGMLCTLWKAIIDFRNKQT
Outline: as §1

[11] = target: T11, ~100 representative kinases (Homo sapiens, UniProt Q9P289); settings: protein MST4; average of three replicates
T11 construct: Recombinant protein kinase domains with a concentration of 2 μM
T11 sequence (Q9P289 whole entry, the tested form may be a part): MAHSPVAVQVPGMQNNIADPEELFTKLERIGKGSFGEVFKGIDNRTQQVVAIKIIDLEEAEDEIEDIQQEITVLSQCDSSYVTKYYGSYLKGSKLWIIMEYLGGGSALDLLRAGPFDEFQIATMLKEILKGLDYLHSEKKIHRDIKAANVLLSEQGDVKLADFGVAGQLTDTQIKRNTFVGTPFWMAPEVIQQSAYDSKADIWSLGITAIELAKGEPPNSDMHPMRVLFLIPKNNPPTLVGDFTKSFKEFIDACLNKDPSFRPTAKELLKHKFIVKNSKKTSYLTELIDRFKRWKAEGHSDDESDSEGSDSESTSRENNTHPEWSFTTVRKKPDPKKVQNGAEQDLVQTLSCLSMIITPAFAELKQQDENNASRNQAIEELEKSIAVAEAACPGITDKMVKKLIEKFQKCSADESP
Outline: as §1

[12] = protein MAPK14, average of three replicates

| SMILES | dTm [1] [K] | dTm [2] [K] | dTm [3] [K] | dTm [4] [K] | dTm [5] [K] | dTm [6, 12] [K] | dTm [7] [K] | dTm [8] [K] | dTm [9] [K] | dTm [10] [K] | dTm [11] [K] | dTm [6] [K] |
| --- | --- | --- | --- | --- | --- | --- | --- | --- | --- | --- | --- | --- |
| Cc1ccc(C(=O)Nc2ccc(CN3CCN(C)CC3)c(C(F)(F)F)c2)cc1C#Cc1c[nH]c2ncnc(N3CCOCC3)c12 [Compound 1] | 0.31 | 2.59 | 0.00 | 0.19 | 0.0454 | 5.43 | 0.56 | 2.40 | 10.65 | 6.86 | 4.54 | – |
| O=C(Nc1ccc(F)cc1)C1(C(=O)Nc2cccc(-c3c[nH]c4ncnc(N5CCOCC5)c34)c2)CC1 [Compound 2] | 0.12 | 1.19 | -0.03 | -0.82 | 2.09 | 0.08 | -1.26 | 1.77 | 7.29 | 3.63 | 5.41 | – |
| O=C(Nc1cccc(-c2c[nH]c3ncnc(N4CCOCC4)c23)c1)c1cccn(-c2ccc(F)cc2)c1=O [Compound 4] | -0.78 | 3.37 | 2.76 | 0.55 | 5.34 | 1.17 | -1.98 | 1.22 | 8.67 | 4.59 | 1.45 | – |
| Cc1ccc(-n2nc(C(C)(C)C)cc2NC(=O)Nc2cccc(-c3c[nH]c4ncnc(N5CCOCC5)c34)c2)cc1 [Compound 29] | 1.80 | 5.95 | -10.48 | 0.00 | 0.95 | 5.90 | 1.72 | 3.88 | – | 4.49 | 3.56 | – |
| Cc1ccc(-n2nc(C(C)(C)C)cc2NC(=O)Nc2cccc(-c3c[nH]c4nc(Cl)nc(N5CCOCC5)c34)c2)cc1 [Compound 30] | 0.13 | 1.65 | -11.52 | -3.24 | -2.91 | 2.81 | -0.23 | -0.26 | – | 1.60 | -1.63 | – |
| CC(=O)N1CCN(c2nc(Cl)nc3[nH]cc(-c4cccc(NC(=O)Nc5cc(C(C)(C)C)nn5-c5ccc(C)cc5)c4)c23)CC1 [Compound 31] | 0.48 | 1.76 | -9.46 | -1.15 | -0.88 | 3.92 | -0.11 | 0.05 | – | 1.23 | -1.15 | – |
| COc1cc(C(=O)N2CCOCC2)c(F)cc1Nc1nc(N(C)C)c2c(Cl)c[nH]c2n1 [Compound 36] | -0.14 | -0.10 | -1.01 | 0.46 | 4.03 | -0.75 | 1.95 | 4.24 | – | 6.66 | -3.37 | – |
| COc1cc(S(C)(=O)=O)ccc1Nc1nc(N(C)C)c2c(Cl)c[nH]c2n1 [Compound 37] | 0.22 | 0.09 | -0.93 | 1.16 | 2.29 | -0.35 | 0.49 | 1.99 | – | 1.09 | -1.65 | – |
| CCNc1nc(Nc2cc(F)c(C(=O)N3CCOCC3)cc2OC)ncc1C(F)(F)F [GNE-7915] | 1.08 | 0.25 | – | 0.32 | 1.81 | 0.16 | -0.16 | 0.32 | 1.38 | 3.14 | 0.65 | – |
| Cc1ccc(C(=O)Nc2ccc(CN3CCN(C)CC3)c(C(F)(F)F)c2)cc1C#Cc1cnc2[nH]ncc2c1 [GZD-824, reference compound] | 3.27 | 12.20 | – | 0.29 | 1.29 | – | -0.60 | 0.14 | 8.63 | 5.05 | 8.85 | 17.66 |
| C[C@@H]1CN(c2cc(-c3n[nH]c4ccc(OC5(C)CC5)cc34)ncn2)C[C@H](C)O1 [MLi2] | -0.10 | -0.19 | – | 0.07 | 0.66 | 0.038 | 2.16 | 3.50 | 8.80 | 3.65 | -0.41 | – |
| Cn1cc(-c2c[nH]c3ncnc(N4CCOCC4)c23)cc1C#N [PFE-360] | 4.09 | 0.13 | – | 0.56 | 0.63 | 0.53 | -1.69 | -0.81 | 5.91 | 15.45 | 1.97 | – |
| Cc1ccc(C(=O)Nc2ccc(CN3CCN(C)CC3)c(C(F)(F)F)c2)cc1C#Cc1cnc2cccnn12 [Ponatinib, reference compound] | – | 11.47 | – | – | – | 12.52 | – | 1.16 | – | – | – | – |
| CNC(=O)c1cc(Oc2ccc(NC(=O)Nc3cc(C(C)(C)C)nn3-c3ccc4ncccc4c3)c(F)c2)ccn1 [Rebastinib, reference compound] | 4.23 | 5.75 | -5.98 | 0.59 | -1.01 | 20.84 | 1.21 | – | 8.93 | 1.38 | 5.29 | – |
| CN[C@@H]1C[C@H]2O[C@@](C)([C@@H]1OC)n1c3ccccc3c3c4c(c5c6ccccc6n2c5c31)C(=O)NC4 [Staurosporine] | – | – | – | 7.02 | 2.05 | – | – | – | 24.44 | – | – | – |
